By IC50 is commonly meant the concentration at which inhibition is half-maximal.

Structures are written as SMILES. Non-standard residues stand in square brackets, D forms with d. Residues, ends and D or L forms follow the SMILES beside them. *: point of attachment. Propionyl = CCC(=O)*

The source of these data is patent US5767236A, “Linear therapeutic peptides” (Biomeasure, Inc., priority 1995, dated 1998).

Assay [1] relates to M5123 hepatoma. The experiment in a line: Subcutaneous tumor assay, M5123 hepatoma. Type of assay: in vivo, rat. Particulars: 100 μg/injection, s.c., b.i.d. The procedure: (§1) Treatment of tumors induced by subcutaneous implantation of in vitro maintained cell cultures was initiated only when well established as progressively growing tumors in the first transplant generation from in vitro culture. "No takes" were culled and animals with tumors of similar size were carefully randomized into control and test groups.
(§2) Analogues were tested against all tumor systems except SCLC's and NSCLC's at a screening dose of 100 μg/injection, s.c., in the flank opposite from the tumor, b.i.d. Lung tumors (SCLC and NSCLC) were tested at 250 μg/injection, s.c., b.i.d. Rat breast tumors were tested at 400 Ag/injection, s.c., b.i.d., an equivalent extrapolation from the mouse dose.
(§3) In vivo transplantation established tumor systems were implanted s.c. as a 1-2 mm^3 mince of tumor tissue. Treatment was initiated within 2 to 3 days of implantation.
(§4) Tumor weights (mgs) from tumor dimensions (mm×mm) were calculated following the formula of a prolate ellipsoid: […]
(§5) L×W^2 /2, where L is the longer of the two measurements.
(§6) Tumor measurements were determined with a vernier caliper three times/week.

For assay [2], the system named is different human and animal tumors. The experiment in a line: Assay on inhibition of tumor growth, overall statement. Type of assay: in vivo. Particulars: summary of Table 3; inhibitory activity when Percent Test/Control < 80% T/C. The procedure: as §1, §2, §3, §4, §5, §6
The target of assay [3] is T1, GRP receptor (Rattus norvegicus, UniProt P52500).
T1 construct: endogenous in cells; host or cells: rat AR42J pancreatic acinar cells (membrane preparation)
Kind of assay: Assay on binding to GRP receptor ([125I-Tyr4]bombesin displacement, AR42J cell membranes). Particulars: for IC50: rat AR42J cell membranes, [125I-Tyr4]bombesin, 30 min, 4° C., read-out: IC50, affinity binding for the GRP receptors; for increase in the affinity for the GRP receptor compared with litorin or Leu-litorin: ratio of IC50 values versus litorin / Leu-litorin. The procedure:
Rat AR42J pancreatic acinar cells were cultured in Dulbecco's modified Eagle's medium without antibiotics and supplemented with 10% (vol/vol) fetal calf serum. The incubation atmosphere consisted of 10% C)2 -90% humidified air at 37° C.
Membranes for the bombesin receptor binding assay were obtained by homogenizing AR42J cells (Polytron, setting 6, 15 sec) in ice-cold 50 mM Tris-HCl (Buffer A) and centrifuging twice at 39,000× g (10 min), with an intermediate resuspension in fresh buffer. The final pellets were resuspended in 50 mM Tris-HCl, containing 0.1 mg/ml bacitracin, and 0.1% BSA (Buffer B), and held on ice for the receptor binding assay.
For assay, aliquots (0.4 ml) were incubated with 0.05 ml [^125 I-Tyr^4 ] bombesin (~2200 Ci/mmol, New England Nuclear) and Buffer B, with and without 0.05 ml of unlabeled competing analogs. After a 30 min incubation (4° C.), the bound [^125 I-Tyr^4 ] bombesin was separated from the free by rapid filtration through GF/B filters which had been previously soaked in 0.1% polyethyleneimine. The filters were then washed three times with 5 ml aliquots of ice-cold Buffer A. Specific binding was defined as the total [^125 I-Tyr^4 ] bombesin bound minus that bound in the presence of 1 μM unlabeled bombesin.

Assay [4] relates to NCI-H345 human small cell lung cancer (SCLC). The experiment in a line: Subcutaneous tumor assay, NCI-H345 lung tumor. Type of assay: in vivo. The conditions noted are these: FIG. 1. The procedure:
as §1, §2, §3, §4, §5, §6
An in vitro maintained human small cell lung cancer
(SCLC) graciously prided by Dr. A. Gazdar. Cell
agglomerates produce slow, progressively growing tumors
in approximately 80% of athymic nude mice
when implanted subcutaneously. Tested as
well established subcutaneous
xenografts in athymic nudes.

Assay [5] deals with M7777 hepatoma. Kind of assay: Subcutaneous tumor assay, M7777 hepatoma. The format is in vivo, rat. Particulars: 100 μg/injection, s.c., b.i.d. The procedure:
as §1, §2, §3, §4, §5, §6

The subject of assay [6] is CX-5 colon tumor. The experiment in a line: Subcutaneous tumor assay, CX-5 colon tumor. Type of assay: in vivo, human. Particulars: 100 μg/injection, s.c., b.i.d. The procedure:
as §1, §2, §3, §4, §5, §6
GOB-G Moderately differentiated adenocarcinoma, human, tested
as xenografts in athymic nude females.

T1 sequence (P52500 whole entry): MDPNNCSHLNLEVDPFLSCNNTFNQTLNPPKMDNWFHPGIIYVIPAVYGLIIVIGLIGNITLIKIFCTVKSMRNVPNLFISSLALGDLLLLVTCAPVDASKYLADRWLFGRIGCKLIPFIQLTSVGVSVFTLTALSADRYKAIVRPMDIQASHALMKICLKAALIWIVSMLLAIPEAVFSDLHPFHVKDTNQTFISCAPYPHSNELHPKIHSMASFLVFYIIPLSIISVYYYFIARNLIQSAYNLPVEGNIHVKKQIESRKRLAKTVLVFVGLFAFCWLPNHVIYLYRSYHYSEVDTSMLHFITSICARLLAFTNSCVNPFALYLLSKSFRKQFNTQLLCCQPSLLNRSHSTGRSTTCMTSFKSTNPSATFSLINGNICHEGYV

On to `CSCC[C@H](NC(=O)[C@H](CC(C)C)NC(=O)[C@H](Cc1c[nH]cn1)NC(=O)CNC(=O)[C@@H](NC(=O)[C@H](C)NC(=O)[C@H](Cc1c[nH]c2ccccc12)NC(=O)[C@H](CCC(N)=O)NC(=O)[C@H](N)Cc1ccccc1)C(C)C)C(N)=O` [BIM-26218, H-D-Phe-Gln-Trp-Ala-Val-Gly-His-Leu-Met-NH2], for which, in assay [1], the “Percent Test/Control (tumor weight)” value is 70%. Besides, in assay [2], the “inhibition of the growth of different human and animal tumors” value is “capable of inhibiting the growth”. Consider `CCCC[C@H](NC(=O)[C@H](Cc1ccccc1)NC(=O)[C@H](Cc1c[nH]cn1)NC(=O)CNC(=O)[C@@H](NC(=O)[C@H](C)NC(=O)[C@H](Cc1c[nH]c2ccccc12)NC(=O)[C@H](CCC(N)=O)NC(=O)[C@H](N)Cc1ccccc1)C(C)C)C(N)=O` [BIM-26224, H-D-Phe-Gln-Trp-Ala-Val-Gly-His-Phe-Nle-NH2], for which the IC50 in assay [3] came out at 700 pM. Moreover, in assay [4], the “growth inhibitory effect on small cell lung carcinoma (SCLC)” value is on record as “capable of inhibiting”. Consider `CC(=O)N[C@@H](Cc1c[nH]cn1)C(=O)N[C@@H](Cc1c[nH]c2ccccc12)C(=O)N[C@@H](C)C(=O)N[C@H](C(=O)NCC(=O)N[C@@H](Cc1c[nH]cn1)C(=O)N[C@@H](CC(C)C)C(=O)N[C@@H](CC(C)C)C(N)=O)C(C)C` [BIM-26225, Acetyl-His-Trp-Ala-Val-Gly-His-Leu-Leu-NH2] (Ac-HWAVGHLL-NH2), for which, in assay [5], the “Percent Test/Control (tumor weight)” value is 52%. In assay [2], the “inhibition of the growth of different human and animal tumors” value is recorded as “capable of inhibiting the growth”. As to `CCC(=O)N[C@@H](Cc1c[nH]cn1)C(=O)N[C@@H](Cc1c[nH]c2ccccc12)C(=O)N[C@@H](C)C(=O)N[C@H](C(=O)N[C@H](C)C(=O)N[C@@H](Cc1c[nH]cn1)C(=O)N[C@@H](CC(C)C)C(=O)N[C@@H](CC(C)C)C(N)=O)C(C)C` [BIM-26247, Propionyl-His-Trp-Ala-Val-D-Ala-His-Leu-Leu-NH2] (Propionyl-HWAV[dA]HLL-NH2), the “Percent Test/Control (tumor weight)” value in assay [6] is reported as 54%. Also, in assay [2], the “inhibition of the growth of different human and animal tumors” value is given as “capable of inhibiting the growth”. For `CSCC[C@H](NC(=O)[C@H](Cc1ccccc1)NC(=O)[C@H](Cc1c[nH]cn1)NC(=O)CNC(=O)[C@@H](NC(=O)[C@H](C)NC(=O)[C@H](Cc1c[nH]c2ccccc12)NC(=O)[C@H](CCC(N)=O)NC(=O)[C@H](N)Cc1ccccc1)C(C)C)C(N)=O` [BIM-26269, H--D-Phe--Gln--Trp--Ala--Val--Gly--His--Phe--Met--NH2], the IC50 in assay [3] was 1400 pM. For the molecule `CCCC[C@H](NC(=O)[C@H](Cc1ccccc1)NC(=O)[C@H](Cc1c[nH]cn1)NC(=O)CNC(=O)[C@@H](NC(=O)[C@H](C)NC(=O)[C@H](Cc1c[nH]c2ccccc12)NC(=O)[C@H](CCC(N)=O)NC(=O)[C@H](N)Cc1ccc(O)cc1)C(C)C)C(N)=O` [BIM-26270, H--D-Tyr--Gln--Trp--Ala--Val--Gly--His--Phe--Nle--NH2], in assay [3], the IC50 amounted to 100 pM and the “increase in the affinity for the GRP receptor compared with litorin or Leu-litorin” value (shortened to “increase in the affinity”) is given as 24 to 230 times.

Consider `CSCC[C@H](NC(=O)[C@H](Cc1ccccc1)NC(=O)[C@H](Cc1c[nH]cn1)NC(=O)CNC(=O)[C@@H](NC(=O)[C@H](C)NC(=O)[C@H](Cc1c[nH]c2ccccc12)NC(=O)[C@H](CCC(N)=O)NC(=O)[C@H](N)Cc1ccc(O)cc1)C(C)C)C(N)=O` [BIM-26271, H--D-Tyr--Gln--Trp--Ala--Val--Gly--His--Phe--Met--NH2], for which, in assay [3], the IC50 came to 500 pM and the “increase in the affinity” value was 5- to 15 times. For `CSCC[C@H](NC(=O)[C@H](CC(C)C)NC(=O)[C@H](Cc1c[nH]cn1)NC(=O)CNC(=O)[C@@H](NC(=O)[C@H](C)NC(=O)[C@H](Cc1c[nH]c2ccccc12)NC(=O)[C@H](CCC(N)=O)NC(=O)[C@H](N)Cc1ccc(O)cc1)C(C)C)C(N)=O` [BIM-26274, H--D-Tyr--Gln--Trp--Ala--Val--Gly--His--Leu--Met--NH2], the IC50 in assay [3] came to 300 pM. With `CC(C)C[C@H](NC(=O)[C@H](CC(C)C)NC(=O)[C@H](Cc1c[nH]cn1)NC(=O)CNC(=O)[C@@H](NC(=O)[C@H](C)NC(=O)[C@H](Cc1c[nH]c2ccccc12)NC(=O)[C@H](CCC(N)=O)NC(=O)[C@H](N)Cc1ccc(O)cc1)C(C)C)C(N)=O` [BIM-26278, H--D-Tyr--Gln--Trp--Ala--Val--Gly--His--Leu--Leu--NH2], in assay [3], the IC50 was 1500 pM and the “increase in the affinity” value is reported as 5- to 15 times. As for `CCCC[C@H](NC(=O)[C@H](CC(C)C)NC(=O)[C@H](Cc1c[nH]cn1)NC(=O)CNC(=O)[C@@H](NC(=O)[C@H](C)NC(=O)[C@H](Cc1c[nH]c2ccccc12)NC(=O)[C@H](CCC(N)=O)NC(=O)[C@H](N)Cc1ccc(O)cc1)C(C)C)C(N)=O` [BIM-26279, H--D-Tyr--Gln--Trp--Ala--Val--Gly--His--Leu--Nle--NH2], the IC50 in assay [3] was 1700 pM. The same measure, in the same setting: with `CC(C)C[C@H](NC(=O)[C@H](Cc1ccccc1)NC(=O)[C@H](Cc1c[nH]cn1)NC(=O)CNC(=O)[C@@H](NC(=O)[C@H](C)NC(=O)[C@H](Cc1c[nH]c2ccccc12)NC(=O)[C@H](CCC(N)=O)NC(=O)[C@H](N)Cc1ccc(O)cc1)C(C)C)C(N)=O` [BIM-26288, H--D-Tyr--Gln--Trp--Ala--Val--Gly--His--Phe--Leu--NH2] the figure was 700 pM.
